In PubChem BioAssay AID248 (DTP/NCI, 2004):
Several values for one entry are separate records, joined by “and”; a condition that tells them apart may be missing. Equal values may be shown once. Inconclusive results and toxic doses are left out.

System: L1210 leukemia ip in BDF1 mice, survival T/C
Assay: NCI In Vivo Anticancer Drug Screen. Data for tumor model L1210 Leukemia (intraperitoneal) in B6D2F1 (BDF1) mice
Details: higher = longer survival
In short: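 Tumor cells were implanted, animals were treated, and survival was followed. The result divides the treated measurement by the vehicle-control measurement.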

[1] = endpoint: mean survival time, dose: 100.0 mg/kg/injection, schedule: Q01DX001 (ip), vehicle: carboxymethylcellulose (CMC)
[2] = endpoint: mean survival time, dose: 200.0 mg/kg/injection, schedule: Q01DX001 (ip), vehicle: carboxymethylcellulose (CMC)

For `COc1cccc2c1C(=O)c1c(O)c3c(c(O)c1C2=O)C[C@@](O)(/C(C)=N/NC(=O)c1ccccc1)C[C@@H]3OC1CC(N)C(O)C(C)O1` (some centres not stated), the T/C (endpoint: mean survival time, dose: 0.25 mg/kg/injection, schedule: Q04DX003 (ip), vehicle: water) was 110 % of control, the T/C (endpoint: mean survival time, dose: 0.5 mg/kg/injection, schedule: Q04DX003 (ip), vehicle: water) was 111 % of control and the T/C (endpoint: mean survival time, dose: 1.0 mg/kg/injection, schedule: Q04DX003 (ip), vehicle: water) was 117 % of control. For the same molecule, the T/C (endpoint: mean survival time, dose: 4.0 mg/kg/injection, schedule: Q04DX003 (ip), vehicle: water) was 124 % of control, the T/C (endpoint: mean survival time, dose: 8.0 mg/kg/injection, schedule: Q04DX003 (ip), vehicle: water) was 151 % of control and the T/C (endpoint: mean survival time, dose: 16.0 mg/kg/injection, schedule: Q04DX003 (ip), vehicle: water) was 179 % of control and 205 % of control. For the same molecule, the T/C (endpoint: mean survival time, dose: 24.0 mg/kg/injection, schedule: Q04DX003 (ip), vehicle: water) was 120 % of control, the T/C (endpoint: median survival time, dose: 0.25 mg/kg/injection, schedule: Q01DX009 (ip), vehicle: water) was 94 % of control and the T/C (endpoint: median survival time, dose: 0.25 mg/kg/injection, schedule: Q03HX024 (ip), vehicle: water) was 105 % of control. The T/C (endpoint: median survival time, dose: 0.5 mg/kg/injection, schedule: Q01DX009 (ip), vehicle: water) was 110 % of control, the T/C (endpoint: median survival time, dose: 0.5 mg/kg/injection, schedule: Q03HX024 (ip), vehicle: water) was 110 % of control and the T/C (endpoint: median survival time, dose: 0.78 mg/kg/injection, schedule: Q03HX008 (ip), vehicle: water) was 122 % of control. The T/C (endpoint: median survival time, dose: 0.78 mg/kg/injection, schedule: Q03HX024 (ip), vehicle: water) was 111 % of control, the T/C (endpoint: median survival time, dose: 1.0 mg/kg/injection, schedule: Q01DX009 (ip), vehicle: water) was 115 % of control and the T/C (endpoint: median survival time, dose: 1.0 mg/kg/injection, schedule: Q03HX008 (ip), vehicle: water) was 115 % of control. For the same molecule, the T/C (endpoint: median survival time, dose: 1.17 mg/kg/injection, schedule: Q03HX024 (ip), vehicle: water) was 100 % of control, the T/C (endpoint: median survival time, dose: 1.2 mg/kg/injection, schedule: Q01DX009 (ip), vehicle: water) was 105 % of control and the T/C (endpoint: median survival time, dose: 1.2 mg/kg/injection, schedule: Q03HX008 (ip), vehicle: water) was 105 % of control. The T/C (endpoint: median survival time, dose: 1.25 mg/kg/injection, schedule: Q04DX003 (ip), vehicle: water) was 105 % of control, the T/C (endpoint: median survival time, dose: 1.75 mg/kg/injection, schedule: Q01DX009 (ip), vehicle: water) was 94 % of control and the T/C (endpoint: median survival time, dose: 1.75 mg/kg/injection, schedule: Q03HX024 (ip), vehicle: water) was 111 % of control. The T/C (endpoint: median survival time, dose: 2.0 mg/kg/injection, schedule: Q01DX009 (ip), vehicle: water) was 110 % of control, the T/C (endpoint: median survival time, dose: 2.5 mg/kg/injection, schedule: Q01DX001 (ip), vehicle: water) was 115 % of control and the T/C (endpoint: median survival time, dose: 2.5 mg/kg/injection, schedule: Q04DX003 (ip), vehicle: water) was 121 % of control. The T/C (endpoint: median survival time, dose: 2.6 mg/kg/injection, schedule: Q01DX009 (ip), vehicle: water) was 122 % of control, the T/C (endpoint: median survival time, dose: 2.6 mg/kg/injection, schedule: Q03HX008 (ip), vehicle: water) was 105 % of control and the T/C (endpoint: median survival time, dose: 2.6 mg/kg/injection, schedule: Q03HX024 (ip), vehicle: water) was 94 % of control. For the same molecule, the T/C (endpoint: median survival time, dose: 2.6 mg/kg/injection, schedule: Q04DX003 (ip), vehicle: water) was 111 % of control, the T/C (endpoint: median survival time, dose: 3.9 mg/kg/injection, schedule: Q01DX001 (ip), vehicle: water) was 111 % of control and the T/C (endpoint: median survival time, dose: 3.9 mg/kg/injection, schedule: Q01DX009 (ip), vehicle: water) was 122 % of control. The T/C (endpoint: median survival time, dose: 3.9 mg/kg/injection, schedule: Q03HX008 (ip), vehicle: water) was 100 % of control, the T/C (endpoint: median survival time, dose: 3.9 mg/kg/injection, schedule: Q03HX024 (ip), vehicle: water) was 88 % of control and the T/C (endpoint: median survival time, dose: 3.9 mg/kg/injection, schedule: Q04DX003 (ip), vehicle: water) was 111 % of control. For the same molecule, the T/C (endpoint: median survival time, dose: 4.0 mg/kg/injection, schedule: Q03HX008 (ip), vehicle: water) was 152 % of control, the T/C (endpoint: median survival time, dose: 5.0 mg/kg/injection, schedule: Q01DX001 (ip), vehicle: water) was 115 % of control and the T/C (endpoint: median survival time, dose: 5.0 mg/kg/injection, schedule: Q04DX003 (ip), vehicle: water) was 105 % of control. The T/C (endpoint: median survival time, dose: 5.9 mg/kg/injection, schedule: Q01DX001 (ip), vehicle: water) was 100 % of control, the T/C (endpoint: median survival time, dose: 5.9 mg/kg/injection, schedule: Q04DX003 (ip), vehicle: water) was 100 % of control and the T/C (endpoint: median survival time, dose: 8.9 mg/kg/injection, schedule: Q01DX001 (ip), vehicle: water) was 122 % of control. For the same molecule, the T/C (endpoint: median survival time, dose: 8.9 mg/kg/injection, schedule: Q01DX009 (ip), vehicle: water) was 94 % of control, the T/C (endpoint: median survival time, dose: 8.9 mg/kg/injection, schedule: Q04DX003 (ip), vehicle: water) was 111 % of control and the T/C (endpoint: median survival time, dose: 10.0 mg/kg/injection, schedule: Q01DX001 (ip), vehicle: water) was 115 % of control. For the same molecule, the T/C (endpoint: median survival time, dose: 10.0 mg/kg/injection, schedule: Q04DX003 (ip), vehicle: water) was 163 % of control, the T/C (endpoint: median survival time, dose: 13.3 mg/kg/injection, schedule: Q01DX001 (ip), vehicle: water) was 111 % of control and the T/C (endpoint: median survival time, dose: 13.3 mg/kg/injection, schedule: Q04DX003 (ip), vehicle: water) was 105 % of control. The T/C (endpoint: median survival time, dose: 20.0 mg/kg/injection, schedule: Q01DX001 (ip), vehicle: water) was 157 % of control, the T/C (endpoint: median survival time, dose: 20.0 mg/kg/injection, schedule: Q04DX003 (ip), vehicle: water) was 100 % of control and the T/C (endpoint: median survival time, dose: 20.0 mg/kg/injection, schedule: Q08DX002 (ip), vehicle: water) was 89 % of control.
`[O-]/[N+](=C\c1ccccc1)C(c1ccccc1)c1ccccc1` was tested, and the T/C (endpoint: mean survival time, dose: 75.0 mg/kg/injection, schedule: Q04DX003 (ip), vehicle: saline) was 97 % of control, the T/C (endpoint: mean survival time, dose: 150.0 mg/kg/injection, schedule: Q04DX003 (ip), vehicle: saline) was 96 % of control and the T/C (endpoint: mean survival time, dose: 300.0 mg/kg/injection, schedule: Q04DX003 (ip), vehicle: saline) was 89 % of control.
`O=c1[nH]nnc2c1cnn2-c1ccccc1` was tested, and the T/C [1] was 101 % of control and the T/C [2] was 97 % of control.
With `CCC(C)N` (configuration not stated) the T/C (endpoint: mean survival time, dose: 100.0 mg/kg/injection, schedule: Q04DX003 (ip), vehicle: saline) was 95 % of control and the T/C (endpoint: mean survival time, dose: 200.0 mg/kg/injection, schedule: Q04DX003 (ip), vehicle: saline) was 95 % of control.
In the case of `COC1OC(CN(CCOS(C)(=O)=O)CCOS(C)(=O)=O)C2OC(C)(C)OC12` (configuration not stated), the T/C (endpoint: mean survival time, dose: 50.0 mg/kg/injection, schedule: Q01DX001 (ip), vehicle: Klucel (hydroxypropylcellulose) (HPC)) is reported as 114 % of control, the T/C (endpoint: mean survival time, dose: 100.0 mg/kg/injection, schedule: Q01DX001 (ip), vehicle: Klucel (hydroxypropylcellulose) (HPC)) is reported as 108 % of control and the T/C (endpoint: mean survival time, dose: 200.0 mg/kg/injection, schedule: Q01DX001 (ip), vehicle: Klucel (hydroxypropylcellulose) (HPC)) is reported as 107 % of control. For the same molecule, the T/C (endpoint: mean survival time, dose: 400.0 mg/kg/injection, schedule: Q01DX001 (ip), vehicle: Klucel (hydroxypropylcellulose) (HPC)) was 105 % of control.
With `ClC(Cl)(Cl)CC(Br)C(Br)CBr` (configuration not stated) the T/C (endpoint: mean survival time, dose: 100.0 mg/kg/injection, schedule: Q01DX001 (ip), vehicle: acetone) was 96 % of control, the T/C (endpoint: mean survival time, dose: 100.0 mg/kg/injection, schedule: Q01DX009 (ip), vehicle: acetone) was 95 % of control and the T/C (endpoint: mean survival time, dose: 100.0 mg/kg/injection, schedule: Q04DX003 (ip), vehicle: acetone) was 97 % of control. For the same molecule, the T/C (endpoint: mean survival time, dose: 200.0 mg/kg/injection, schedule: Q01DX001 (ip), vehicle: acetone) was 98 % of control, the T/C (endpoint: mean survival time, dose: 200.0 mg/kg/injection, schedule: Q04DX003 (ip), vehicle: acetone) was 92 % of control and the T/C (endpoint: mean survival time, dose: 400.0 mg/kg/injection, schedule: Q01DX001 (ip), vehicle: acetone) was 98 % of control. The T/C (endpoint: mean survival time, dose: 400.0 mg/kg/injection, schedule: Q04DX003 (ip), vehicle: acetone) was 91 % of control.
`CN1CCC(Br)(C(=O)c2ccccc2)CC1` was tested, and the T/C (endpoint: mean survival time, dose: 75.0 mg/kg/injection, schedule: Q01DX001 (ip), vehicle: saline) was 101 % of control and the T/C (endpoint: mean survival time, dose: 150.0 mg/kg/injection, schedule: Q01DX001 (ip), vehicle: saline) was 93 % of control.
`O=C(C(=O)c1ccco1)c1ccccc1` was tested, and the T/C (endpoint: mean survival time, dose: 75.0 mg/kg/injection, schedule: Q01DX001 (ip), vehicle: carboxymethylcellulose (CMC)) was 100 % of control, the T/C (endpoint: mean survival time, dose: 150.0 mg/kg/injection, schedule: Q01DX001 (ip), vehicle: carboxymethylcellulose (CMC)) was 102 % of control and the T/C (endpoint: mean survival time, dose: 300.0 mg/kg/injection, schedule: Q01DX001 (ip), vehicle: carboxymethylcellulose (CMC)) was 97 % of control.
With `O=P(O)(O)/C=C/c1ccccc1` the T/C (endpoint: mean survival time, dose: 100.0 mg/kg/injection, schedule: Q01DX001 (ip), vehicle: saline) was 97 % of control, the T/C (endpoint: mean survival time, dose: 100.0 mg/kg/injection, schedule: Q04DX003 (ip), vehicle: Klucel (hydroxypropylcellulose) (HPC)) was 90 % of control and the T/C (endpoint: mean survival time, dose: 200.0 mg/kg/injection, schedule: Q01DX001 (ip), vehicle: saline) was 91 % of control. The T/C (endpoint: mean survival time, dose: 200.0 mg/kg/injection, schedule: Q04DX003 (ip), vehicle: Klucel (hydroxypropylcellulose) (HPC)) was 98 % of control and the T/C (endpoint: mean survival time, dose: 400.0 mg/kg/injection, schedule: Q01DX001 (ip), vehicle: saline) was 98 % of control.
`N=NC(=O)c1ccccc1Nc1c(O)[nH]c2ccccc12` was tested, and the T/C [1] was 89 % of control, the T/C [2] was 93 % of control and the T/C (endpoint: mean survival time, dose: 400.0 mg/kg/injection, schedule: Q01DX001 (ip), vehicle: carboxymethylcellulose (CMC)) was 93 % of control.
`OCC1C2C=CC(C3C=CC32)C1CO` (configuration not stated) was tested, and the T/C (endpoint: mean survival time, dose: 100.0 mg/kg/injection, schedule: Q04DX002 (ip), vehicle: Klucel (hydroxypropylcellulose) (HPC)) was 98 % of control, the T/C (endpoint: mean survival time, dose: 200.0 mg/kg/injection, schedule: Q04DX002 (ip), vehicle: Klucel (hydroxypropylcellulose) (HPC)) was 98 % of control and the T/C (endpoint: mean survival time, dose: 400.0 mg/kg/injection, schedule: Q04DX002 (ip), vehicle: Klucel (hydroxypropylcellulose) (HPC)) was 113 % of control.
